# Reference: ChEMBL document CHEMBL1147273, “3-Dimethylallylindole: an antibacterial and antifungal metabolite from Monodora tenuifolia” (1986)
# Active and inactive are the calls of the source. The calls are words filed in the database; no cut-off is given here.
# Experiments:
# Bacillus subtilis = assay: Antimicrobial activity against Bacillus subtilis ATCC 6633 by towfold serial dilution method; format: functional
# [1] = test system: Mycolicibacterium smegmatis; assay: Antimicrobial activity against Mycobacterium smegmatis ATCC 607 by towfold serial dilution method; format: functional
# Staphylococcus aureus = assay: Antimicrobial activity against Staphylococcus aureus ATCC 6538 by towfold serial dilution method; format: functional
# Candida albicans [2] = assay: Antimicrobial activity against Candida albicans ATCC 10231 by towfold serial dilution method; format: functional
# Candida albicans [3] = assay: Antimicrobial activity against Candida albicans NIH B311 by towfold serial dilution method; format: functional
# Candida albicans [4] = assay: Antimicrobial activity against Candida albicans WH by towfold serial dilution method; format: functional
# Cryptococcus neoformans = assay: Antimicrobial activity against Cryptococcus neoformans ATCC 32264 by towfold serial dilution method; format: functional
# Saccharomyces cerevisiae = assay: Antimicrobial activity against Saccharomyces cerevisiae ATCC 9763 by towfold serial dilution method; format: functional
# Helminthosporium = assay: Antimicrobial activity against Helminthosporium sp. NRRL 4671 by towfold serial dilution method; format: functional
# Trametes sanguinea = assay: Antimicrobial activity against Pycnoporus sanguineus ATCC 14622 by towfold serial dilution method; format: functional
# [5] = test system: Trichophyton mentagrophytes; assay: Antimicrobial activity against Trichophyton mentagrophytes ATCC 9172 by towfold serial dilution method; format: functional
# Escherichia coli = assay: Antimicrobial activity against Escherichia coli ATCC 10536 by towfold serial dilution method; format: functional, organism-based
# Pseudomonas aeruginosa = assay: Antimicrobial activity against Pseudomonas aeruginosa ATCC 15442 by towfold serial dilution method; format: functional, organism-based
# Aspergillus niger = assay: Antimicrobial activity against Aspergillus niger ATCC 16888 by towfold serial dilution method; format: functional, organism-based
structure (smiles),measurement,setting,value
CC(C)=CCc1c[nH]c2ccccc12,MIC,Bacillus subtilis,12.5 µg/mL
same,MIC,[1],3.12 µg/mL
same,MIC,Staphylococcus aureus,12.5 µg/mL
same,MIC,Candida albicans [2],25 µg/mL
same,MIC,Candida albicans [3],25 µg/mL
same,MIC,Candida albicans [4],25 µg/mL
same,MIC,Cryptococcus neoformans,12.5 µg/mL
same,MIC,Saccharomyces cerevisiae,12.5 µg/mL
same,MIC,Helminthosporium,0.78 µg/mL
same,MIC,Trametes sanguinea,12.5 µg/mL
same,MIC,[5],1.56 µg/mL
same,Activity,Escherichia coli,inactive
same,Activity,Pseudomonas aeruginosa,inactive
same,Activity,Aspergillus niger,inactive
